Source: ChEMBL document CHEMBL5137014, “Insight on pyrimido[5,4-g]indolizine and pyrimido[4,5-c]pyrrolo[1,2-a]azepine systems as promising photosensitizers on malignant cells” (Eur J Med Chem, 2022)
Calls of active or inactive are those of the source. The rule behind the calls is not given here.

Experiments:
[1] = Induction of singlet oxygen in phosphate buffer assessed as RNO bleaching at pH 7.3 irradiated with 440 nm LED light by spectrophotometry; format: functional
[2] = Induction of superoxide anion generation irradiated with 560 nm LED light; format: functional
T-24 [3] = assay: Induction of apoptosis in human T24 cells assessed as necrotic cells at IC50 followed by irradiated with 2 J/cm^2 of light dose after 24 hrs annexin-V-PI staining based flow cytometry; format: functional, cell-based
HCC1954 = assay: Phototoxicity against human HCC1954 cells assessed as cell viability incubated for 1 hr followed by irradiated with 2 J/cm^2 of light dose measured after 24 hrs by resazurin assay; format: functional, cell-based; settings: HCC1954, light or radiation study
MDA-MB-231 [4] = assay: Induction of apoptosis in human MDA-MB-231 cells assessed as pyknotic nuclei at IC50 measured after 24 hrs by Hoechst staining based microscopic analysis; format: functional
MDA-MB-231 [5] = assay: Induction of apoptosis in human MDA-MB-231 cells assessed as chromatin condensation and fragmentation at IC50 measured after 24 hrs by Hoechst staining based microscopic analysis; format: functional
T-24 [6] = assay: Phototoxicity against human T24 cells assessed as cell viability incubated for 1 hr followed by irradiated with 2 J/cm^2 of light dose measured after 24 hrs by resazurin assay; format: functional, cell-based; settings: T-24, light or radiation study
DNA [7] = assay: Induction of DNA damage in Escherichia coli pBR322 DNA assessed as supercoiled DNA irradiated with 15 J/cm^2 UV light dose relative to control; format: nucleic-acid assay
DNA [8] = assay: Induction of DNA damage in Escherichia coli pBR322 DNA assessed as open circular DNA irradiated with 15 J/cm^2 UV light dose relative to control; format: nucleic-acid assay
T-24 [9] = assay: Induction of apoptosis in human T24 cells assessed as apoptotic cells at IC50 followed by irradiated with 2 J/cm^2 of light dose after 24 hrs annexin-V-PI staining based flow cytometry; format: functional, cell-based
MDA-MB-231 [10] = assay: Induction of reactive oxygen species production in human MDA-MB-231 cells assessed as increase in hydrogen peroxide production incubated for 1 hr followed by irradiated with 2 J/cm^2 of light dose by CM-H2DCFDA dye based fluorescence assay; format: functional, cell-based
[11] = Selectivity index, ratio of IC50 for dark toxicity against human MDA-MB-231 cells to IC50 for phototoxicity against human MDA-MB-231 cells irradiated with 2 J/cm^2 of light dose; format: cell-based; settings: read-out: Ratio IC50
DNA [12] = assay: Induction of DNA damage in Escherichia coli pBR322 DNA assessed as supercoiled DNA relative to control; format: nucleic-acid assay
MDA-MB-231 [13] = assay: Induction of reactive oxygen species production in human MDA-MB-231 cells assessed as decrease in thiol formation incubated for 1 hr followed by irradiated with 2 J/cm^2 of light dose after 24 hrs by DTNB assay; format: functional, cell-based; settings: time 25.0 hrs, TDE = time-dependent effect
DNA [14] = assay: Induction of DNA damage in Escherichia coli pBR322 DNA assessed as supercoiled DNA irradiated with 7.5 J/cm^2 UV light dose relative to control; format: nucleic-acid assay
MDA-MB-231 [15] = assay: Dark toxicity against human MDA-MB-231 cells assessed as cell viability after 72 hrs by MTT assay; format: functional, cell-based; settings: MDA-MB-231, 72 h
MDA-MB-231 [16] = assay: Phototoxicity against human MDA-MB-231 cells assessed as cell viability incubated for 1 hr followed by irradiated with 2 J/cm^2 of light dose measured after 72 hrs by MTT assay; format: functional, cell-based; settings: MDA-MB-231, light or radiation study
DNA [17] = assay: Induction of DNA damage in Escherichia coli pBR322 DNA assessed as open circular DNA irradiated with 7.5 J/cm^2 UV light dose relative to control; format: nucleic-acid assay
DNA [18] = assay: Induction of DNA damage in Escherichia coli pBR322 DNA assessed as open circular DNA relative to control; format: nucleic-acid assay

SMILES: CCOC(=O)c1ccc2n1CCc1cnc(NC3CCCCC3)nc1-2
- Activity [1]: Active
- Activity [2]: Active
- Activity (T-24 [3]): Active
- IC50 (HCC1954): 0.9 µM
- Activity (MDA-MB-231 [4]): 86.2%
- Activity (MDA-MB-231 [5]): 83.4%
- IC50 (T-24 [6]): 0.96 µM
- Activity (DNA [7]): 83.5%
- Activity (DNA [8]): 16.5%
- Activity (T-24 [9]): Active
- Activity (MDA-MB-231 [10]): Active
- selectivity ratio [11]: 2.1
- Activity (DNA [12]): 83.4%
- Activity (MDA-MB-231 [13]): Tde
- Activity (DNA [14]): 78.4%
- IC50 (MDA-MB-231 [15]): 1.74 µM
- IC50 (MDA-MB-231 [16]): 0.82 µM
- Activity (DNA [17]): 21.6%
- Activity (DNA [18]): 16.6%

SMILES: CCOC(=O)c1ccc2n1CCc1cnc(NC(C)=O)nc1-2
- selectivity ratio [11]: > 7
- IC50 (MDA-MB-231 [15]): > 6.25 µM
- IC50 (MDA-MB-231 [16]): 0.9 µM

SMILES: CC(=O)Nc1ncc2c(n1)-c1ccc(C(=O)OC(C)C)n1CCC2
- selectivity ratio [11]: > 2.9
- IC50 (MDA-MB-231 [15]): > 50 µM
- IC50 (MDA-MB-231 [16]): 17.2 µM

SMILES: CC(C)OC(=O)c1ccc2n1CCCc1cnc(NC3CCCC3)nc1-2
- selectivity ratio [11]: > 8.7
- IC50 (MDA-MB-231 [15]): > 50 µM
- IC50 (MDA-MB-231 [16]): 5.76 µM

SMILES: CC(=O)Nc1ncc2c(n1)-c1ccc(C(=O)OC(C)C)n1CC2
- selectivity ratio [11]: > 3.8
- IC50 (MDA-MB-231 [15]): > 50 µM
- IC50 (MDA-MB-231 [16]): 13.1 µM

SMILES: c1cc2n(c1)CCc1cnc(NC3CCCCC3)nc1-2
- selectivity ratio [11]: > 16.7
- IC50 (MDA-MB-231 [15]): > 50 µM
- IC50 (MDA-MB-231 [16]): 3 µM

SMILES: CC(C)OC(=O)c1ccc2n1CCc1cnc(Nc3ccccc3)nc1-2
- IC50 (MDA-MB-231 [15]): > 50 µM
- IC50 (MDA-MB-231 [16]): > 50 µM

SMILES: Nc1ncc2c(n1)-c1cccn1CC2
- selectivity ratio [11]: > 7.3
- IC50 (MDA-MB-231 [15]): > 50 µM
- IC50 (MDA-MB-231 [16]): 6.81 µM

SMILES: CCOC(=O)c1ccc2n1CCCc1cnc(NC(C)=O)nc1-2
- selectivity ratio [11]: 19.1
- IC50 (MDA-MB-231 [15]): 27.9 µM
- IC50 (MDA-MB-231 [16]): 1.46 µM

SMILES: CC(C)OC(=O)c1ccc2n1CCCc1cnc(N)nc1-2
- selectivity ratio [11]: 1
- IC50 (MDA-MB-231 [15]): 5.87 µM
- IC50 (MDA-MB-231 [16]): 5.76 µM

SMILES: CC(C)OC(=O)c1ccc2n1CCc1cnc(N)nc1-2
- selectivity ratio [11]: 0.8
- IC50 (MDA-MB-231 [15]): 11.9 µM
- IC50 (MDA-MB-231 [16]): 14.5 µM

SMILES: CC(C)OC(=O)c1ccc2n1CCc1cnc(NC3CCCCC3)nc1-2
- Activity [2]: Active
- Activity (DNA [7]): 36.6%
- Activity (DNA [8]): 63.4%
- selectivity ratio [11]: > 4
- Activity (DNA [12]): 81.3%
- Activity (DNA [14]): 59.7%
- IC50 (MDA-MB-231 [15]): > 50 µM
- IC50 (MDA-MB-231 [16]): 12.5 µM
- Activity (DNA [17]): 40.3%
- Activity (DNA [18]): 18.7%

SMILES: c1ccc(Nc2ncc3c(n2)-c2cccn2CC3)cc1
- selectivity ratio [11]: > 9
- IC50 (MDA-MB-231 [15]): > 50 µM
- IC50 (MDA-MB-231 [16]): 5.55 µM

SMILES: CC(C)OC(=O)c1ccc2n1CCCc1cnc(NC3CCCCC3)nc1-2
- Activity [2]: Active
- Activity (DNA [7]): 50.1%
- Activity (DNA [8]): 49.9%
- selectivity ratio [11]: > 13.3
- Activity (DNA [12]): 61.5%
- Activity (DNA [14]): 50.5%
- IC50 (MDA-MB-231 [15]): > 50 µM
- IC50 (MDA-MB-231 [16]): 3.75 µM
- Activity (DNA [17]): 49.5%
- Activity (DNA [18]): 38.5%

SMILES: c1cc2n(c1)CCc1cnc(NC3CCCC3)nc1-2
- selectivity ratio [11]: 1.1
- IC50 (MDA-MB-231 [15]): 0.91 µM
- IC50 (MDA-MB-231 [16]): 0.86 µM

SMILES: CCOC(=O)c1ccc2n1CCCc1cnc(N)nc1-2
- IC50 (MDA-MB-231 [15]): > 50 µM
- IC50 (MDA-MB-231 [16]): > 50 µM

SMILES: CCOC(=O)c1ccc2n1CCCc1cnc(NC3CCCC3)nc1-2
- selectivity ratio [11]: 1.5
- IC50 (MDA-MB-231 [15]): 1.41 µM
- IC50 (MDA-MB-231 [16]): 0.9 µM

SMILES: CCOC(=O)c1ccc2n1CCCc1cnc(NC3CCCCC3)nc1-2
- Activity [1]: Active
- Activity [2]: Active
- Activity (T-24 [3]): Active
- IC50 (HCC1954): 1.5 µM
- Activity (MDA-MB-231 [4]): 61.5%
- Activity (MDA-MB-231 [5]): 81.3%
- IC50 (T-24 [6]): 0.9 µM
- Activity (DNA [7]): 74.7%
- Activity (DNA [8]): 25.3%
- Activity (T-24 [9]): Active
- Activity (MDA-MB-231 [10]): Active
- selectivity ratio [11]: 12.1
- Activity (DNA [12]): 86.2%
- Activity (MDA-MB-231 [13]): Tde
- Activity (DNA [14]): 76.1%
- IC50 (MDA-MB-231 [15]): 5.44 µM
- IC50 (MDA-MB-231 [16]): 0.45 µM
- Activity (DNA [17]): 23.9%
- Activity (DNA [18]): 13.8%

SMILES: CCOC(=O)c1ccc2n1CCCc1cnc(Nc3ccccc3)nc1-2
- selectivity ratio [11]: > 9.2
- IC50 (MDA-MB-231 [15]): > 50 µM
- IC50 (MDA-MB-231 [16]): 5.45 µM

SMILES: CC(C)OC(=O)c1ccc2n1CCCc1cnc(Nc3ccccc3)nc1-2
- selectivity ratio [11]: > 3.5
- IC50 (MDA-MB-231 [15]): > 50 µM
- IC50 (MDA-MB-231 [16]): 14.3 µM

SMILES: CCOC(=O)c1ccc2n1CCc1cnc(NC3CCCC3)nc1-2
- IC50 (MDA-MB-231 [15]): > 50 µM
- IC50 (MDA-MB-231 [16]): > 50 µM

SMILES: CC(=O)Nc1ncc2c(n1)-c1cccn1CC2
- selectivity ratio [11]: > 3.4
- IC50 (MDA-MB-231 [15]): > 50 µM
- IC50 (MDA-MB-231 [16]): 14.8 µM

SMILES: CC(C)OC(=O)c1ccc2n1CCc1cnc(NC3CCCC3)nc1-2
- selectivity ratio [11]: > 3.7
- IC50 (MDA-MB-231 [15]): > 50 µM
- IC50 (MDA-MB-231 [16]): 13.4 µM
